Entries after “also recorded” stand apart in the source; their conditions may differ.
How the values were obtained:
Clone M3 tumors = experiment: Cloudman M3 (Clone M3) melanoma model; assay type: in vivo, DBA/2N mice; conditions: through 21 days; 2 mg GA IT x5, 10 mg/kg antibody IP x3
Procedure: Mice were randomized into treatment groups when tumors reached mean volumes of 50-80 mm^3 at Day 7.
Treatment groups consisted of vehicle control (n=7, 4% mannitol IT plus 10 mg/kg isotype control antibody IP), anti-PD1 alone (n=5, 4% mannitol IT plus 10 mg/kg anti-PD1 IP), GA alone (2 mg GA IT plus 10 mg/kg isotype control IP), or GA+anti-PD1 combination (n=5, 2 mg GA IT plus 10 mg/kg anti-PD1 IP). Intratumoral treatments were administered 5 times at a frequency of 3 times per week and 50 μL per injection beginning on Day 7. Intraperitoneal antibody was given beginning on Day 7 as well, but for a total of 3 times on a frequency of every 3-4 days.
Primary tumors were measured by caliper measurement. Tumor sizes were
calculated according to the formula (W^2×L)/2. Animals were euthanized when any tumor diameter dimension exceeded 1.8 cm.

EO771 tumors = experiment: EO771 triple negative breast cancer model, GA dose escalation with anti-PD1; parameters: species or system C57BL/6 mice; conditions: mouse, in vivo
Procedure: GA was evaluated for its intratumoral efficacy and dose dependency in tumors alone and in combination with systemic anti-PD1 in the murine Triple negative breast cancer model EO771. EO771 cells were implanted to C57BL/6 mice on Day 0. In this study, two doses of intraperitoneal anti-PD1 (100 μg or 250 μg) and three doses of intratumoral GA (300 μg, 1 mg, 2 mg) were evaluated. Primary tumors were measured by caliper measurement. Tumor volumes were calculated according to the formula, tumor volume (mm^3)=0.52×(width)^2 ×length, where length is the longer of two perpendicular dimensions.

[1] = test system: differentially expressed genes; experiment: RNAseq differential gene expression, pre vs post treatment tumor; assay type: in vivo, human
Procedure: RNASeq Analysis: A cutoff linear fold-change of 4 was used to select for the differentially expressed genes in each patient. Gene ontology (GO) of the biological process, functional annotation clustering, and Kyoto Encyclopedia of Genes and Genomes (KEGG) pathway analysis of the differentially expressed genes was performed using Database for Annotation, Visualization, and Integrated Discovery (DAVID) v2021^7,8.
Immune biomarkers were assessed in tumor biopsies and compared with those in the resected tumors after treatment. Conventional RNA sequencing and a geographical sequencing platform (GeoMx) were used to assess immune markers at the transcriptional level. In the RNA-Seq gene expression analysis, genes were filtered for differentially expressed genes (|FC|<4) between pre-and post-samples for three patients.

CT26wt tumors = experiment: Example 6 syngeneic CT26wt model with anti-mPD-L1; assay type: in vivo, BALB/c mice; conditions: of 8 animals on Day 0
Procedure: FIG. 14. […] Female BALB/c mice were implanted with CT26wt tumor cells into the mammary fat pad on Day 0 and were treated as depicted in the figure legends. […] The number of animals alive on Days 0 (implantation) and 45 (study termination), are shown for each group in parenthesis.
Each experimental group contained eight female BALB/c mice after randomization. On Day 0, 0.5×10^6 CT26wt murine colon adenocarcinoma tumor cells in 100 μl PBS were implanted into the left mammary fat pad of each mouse.
After animals had been randomized on Day 6, treatments were initiated on the same day. […] All groups were evaluated versus the Control, which were animals that had been treated with 25 μl/mouse Vehicle Control (4% mannitol) i.t. in combination with 10 mg/kg Isotype Control i.p.
During the course of the study, individual animals were either euthanized prior to study end without performing a necropsy, after they had reached humane endpoint, or were found dead. On Day 45, the study was terminated and all remaining animals were euthanized without performing a necropsy.

[2] = test system: 28 immune related proteins; experiment: GeoMx digital spatial profiling, biopsy vs resected treated tumor; assay type: in vivo, human
Procedure: GeoMx DSP analysis: Digital spatial profiling of pre-and post-treatment formalin-fixed, paraffin embedded (FFPE) tumor tissue was performed using the GeoMx DSP platform (NanoString Technologies) to measure levels of 28 protein markers associated with immune oncology. Specifically, the immune cell profiling core protein module and IO drug target protein module were used for this analysis following manufacturer's protocol for staining, hybridization, collection, detection (nCounter based-counting), and data normalization. Briefly, this entailed an initial pathologist review of hematoxylin and eosin-stained sections by a pathologist at KUMC to verify presence of tumor cells within the FFPE block. Next, a 5 μm-think unstained FFPE slide was subjected to a cocktail of primary antibodies conjugated with unique DNA-oligonucleotide moieties attached with a light sensitive photocleavable linker. Within this cocktail were also anti-pan-cytokeratin (included with GeoMx assay and used for the basal cell carcinoma and squamous cell carcinoma samples) or anti-MART-1 (Novus Biologicals, catalog #NBP2-46603AF647 used for targeting epithelium in melanoma samples), CD45 (for targeting immune cells) and Syto-13 (used as a nuclear stain). These fluorescently labeled antibodies were used for imaging and identifying the regions of interest (ROIs) followed by segmentation into tumor cells and immune cells for independent collection from each ROI into individual wells of a 96-well plate followed by digital quantification using the NanoString nCounter platform. The GeoMx DSP Analysis Suite version 2.4 was used to perform data QC, normalization, and statistical analysis following guidance by NanoString field scientists. For analysis of similar cell populations (i.e., expression levels only in epithelial cells or only in immune cells), the geometric mean of housekeeping proteins GAPDH, Histone H3, and S6 was used for normalization. When different cell populations were being analyzed (i.e., expression levels in epithelial versus immune cells), the geometric mean of the signal-to-noise ratio of negative control mouse and rabbit isotype IgG controls was used for background correction prior.
The GeoMx Digital Spatial Profiling (DSP) platform (NanoString) was used to profile 28 immune related proteins. This platform allows users to perform nondestructive interrogation of formalin-fixed paraffin embedded (FFPE) tissue (among other tissue types) for multiplexed spatial profiling of immunooncology-related proteins to assess tumor cells and their microenvironment. The GeoMx platform uses a cocktail of antibodies conjugated to photocleavable DNA-barcoded oligos to provide high multiplex capacity and the use of guided ultraviolet light exposure (by way of adjustable 1 million micromirrors) provides a high degree of flexibility in selection of regions of interest for study. DSP technology and the GeoMx platform have been extensively reviewed.
Using the GeoMx DSP platform, we performed in situ digital spatial profiling of tissue specimens collected from the COPAX trial patients before and after treatment to measure levels of 28 proteins (Immune cell profiling panel, and the IO drug target panel). After a pathologist review of H&E-stained tissue specimens to assess presence of tumor cells, GeoMx DSP analysis was performed on a serial unstained slide for each sample. Regions of interest (ROIs) which encompassed both tumor and immune cells were selected either by free-hand drawing using the polygon tool or using a standard circle. The ROIs were further segmented into tumor cells and immune cells based on the staining pattern of morphology markers (pan-cytokeratin and CD45 for the carcinomas and MARTI and CD45 for the melanomas). Following segmentation, the DNA bar codes corresponding to each target in the antibody cocktail were collected by the instrument. […]

[3] = in vivo; cited from earlier work
[4] = mouse, in vivo; cited from earlier work
EAE = conditions: mice; cited from earlier work
[5] = mouse, in vivo; cited from earlier work; remark: listed apart in the source

Which “mouse survival (not exceeding 1750 mm^3 tumor volume or 1.8 cm diameter)” value (Clone M3 tumors) does the source give for Glatiramer acetate [GA] here?
The value was “three of five”.

What about the “systemic cytokines associated with cytokine release syndrome” value (EO771 tumors) of the same substance?
The value was “does not induce systemic cytokines typically associated with cytokine release syndrome”.

And the “Gene Ontology enrichment, upregulated biological processes” value ([1]; all three patients)?
Its value is “upregulation in genes involved in promoting an immune-rich tumor microenvironment”.

And the “genes downregulated post treatment” value ([1]; patient 1)?
Its value is 406 genes.

What about the “genes upregulated post treatment” value ([1]; patient 1, |FC|<4 filter as printed, listed as Copaxone) of the same substance?
Its value is 6355 genes.

And the “genes upregulated post treatment” value ([1]; patient 1, |FC|<4 filter as printed, listed as Copaxone®)?
The value was 6,355 genes.

What about the “genes downregulated post treatment” value ([1]; patient 2) of the same substance?
The value was 75 genes.

What about the “genes upregulated post treatment” value ([1]; patient 2) of the same substance?
Its value is 647 genes.

And the “genes downregulated post treatment” value ([1]; patient 3)?
The value was 128 genes.

And the “genes upregulated post treatment” value ([1]; patient 3)?
Its value is 5375 genes.

What about the “Gene Ontology enrichment, downregulated biological processes” value ([1]; three patients) of the same substance?
The value was “No biological processes were consistently found to be downregulated post treatment”.

And the “number of animals alive on Day 45 (study termination)” value (CT26wt tumors)?
Its value is 0.

And the “patients with CD56 upregulated” value ([2]; Table B patients)?
Its value is 2 patients.

And the “patients with PD-L1 upregulated” value ([2]; Table B patients)?
The value was 3 patients.

And the “Gene expression (upregulated post-treatment)” value (shortened to “Gene expression”) ([2]; patient BCCa-Left Nasal Ala, 2 Copaxone injections)?
The value was “CD56, CD11c,”.

What about the “Gene expression” value ([2]; patient BCCa-Right Post. Neck, 2 Copaxone injections) of the same substance?
The value was “VISTA, GITR”.

What about the “Gene expression” value ([2]; patient SCCa-Right Cheek, 1 Copaxone injection) of the same substance?
Its value is “CD45, CD3,; also recorded: OX401, GITR,”.

And the “immune marker expression after treatment (GeoMx, overall)” value ([2]; patients, biopsy vs resected treated tumor, listed as Copaxone®)?
The value was “immunostimulatory effect at the intratumoral injection site; also recorded: Several patients exhibited upregulated expression of genes that encode targets for checkpoint inhibitor therapy; also recorded: upregulated markers of stimulatory immune activity; also recorded: Immune markers including hallmarks of T cell recruitment and activation were upregulated in tumors”.

And the systemic exposure [3]?
Its systemic exposure is “negligible systemic exposure”.

And the “aggregate formation near the injection site” value [4]?
Its value is “formed spherical aggregates near the injection site”.

What about the “effect on EAE” value (EAE) of the same substance?
The value was “suppress EAE”.

What about the “retention of co-delivered immunostimulants at injection site” value [5] of the same substance?
The value was “retaining other HIT-IT such as CpG and PolyI: C at the intratumoral site of injection”.

Reference: patent US20260028404A1 (UNIVERSITY OF KANSAS, priority 2022, published 2026)
